Molecular target: T1, human mPGES-1 (Homo sapiens, UniProt O14684)
T1 construct: made in house; host or cells: COS-1 cells (transient transfection; microsomal fraction used as enzyme)
T1 sequence (O14684 1-152): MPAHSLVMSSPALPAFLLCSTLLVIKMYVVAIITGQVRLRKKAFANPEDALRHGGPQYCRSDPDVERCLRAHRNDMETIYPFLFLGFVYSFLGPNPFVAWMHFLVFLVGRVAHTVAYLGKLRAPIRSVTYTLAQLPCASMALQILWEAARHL
Test: Test for mPGES-1 inhibitory activity (microsomal enzyme, PGE2 EIA)
Assay type: biochemical
Conditions: microsomes from COS-1 cells transfected with human mPGES-1 cDNA; substrate PGH2 1 μM; 4° C., 4 minutes; PGE2 measured by EIA; read-out: h mPGES1 IC50
How it was run: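 Enzyme source was microsomes from COS-1 cells transiently expressing human mPGES-1, in sodium phosphate pH 7.2 with 2.5 mM GSH, 1 mM EDTA and 2% DMSO final. After a 15 min preincubation with compound at 4 °C, 1 μM PGH2 (final) reacted for 4 min at 4 °C.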

IC50 [nM]	SMILES
< 1	O=c1cc(C(F)(F)F)nc(-c2c(C(F)(F)F)ccc(CNC(=O)[C@H]3CC[C@H](OCc4cc(F)cc(F)c4)CC3)c2F)[nH]1 [Example 117, trans-4-[(3,5-difluorobenzyl)oxy]-N-{2-fluoro-3-[6-oxo-4-(trifluoromethyl)-1,6-dihydropyrimidin-2-yl]-4-(trifluoromethyl)benzyl}cyclohexane-1-carboxamide]
1.2	Cc1nc(-c2c(C(F)(F)F)ccc(CNC(=O)[C@H]3CC[C@H](OCc4ccc(Cl)cc4)CC3)c2F)[nH]c(=O)c1F [Example 104, trans-4-[(4-chlorobenzyl)oxy]-N-[2-fluoro-3-(5-fluoro-4-methyl-6-oxo-1,6-dihydropyrimidin-2-yl)-4-(trifluoromethyl)benzyl]cyclohexane-1-carboxamide]
< 1	Cc1cc(N2CCC(C(=O)NCc3ccc(C(F)(F)F)c(-c4nc(C(F)(F)F)cc(=O)[nH]4)c3F)CC2)ccc1F [Example 60, N-{2-fluoro-3-[6-oxo-4-(trifluoromethyl)-1,6-dihydropyrimidin-2-yl]-4-(trifluoromethyl)benzyl}-1-(4-fluoro-3-methylphenyl)piperidine-4-carboxamide]
39	Cc1cc(=O)[nH]c(-c2c(C(F)(F)F)ccc(CNC(=O)C3CCN(c4ccc(OC(F)(F)F)cc4)CC3)c2F)n1 [Example 87, N-[2-fluoro-3-(4-methyl-6-oxo-1,6-dihydropyrimidin-2-yl)-4-(trifluoromethyl)benzyl]-1-[4-(trifluoromethoxy)phenyl]piperidine-4-carboxamide]
< 1	Cc1nc(-c2c(C(F)(F)F)ccc(CNC(=O)C3CCN(c4ncc(Cl)cc4Cl)CC3)c2F)[nH]c(=O)c1F [Example 44, 1-(3,5-dichloropyridin-2-yl)-N-[2-fluoro-3-(5-fluoro-4-methyl-6-oxo-1,6-dihydropyrimidin-2-yl)-4-(trifluoromethyl)benzyl]piperidine-4-carboxamide]
10	Cc1cc(=O)[nH]c(-c2c(C(F)(F)F)ccc(CNC(=O)[C@H]3CC[C@H](OCc4cccc(C(F)(F)F)c4)CC3)c2F)n1 [Example 109, trans-N-[2-fluoro-3-(4-methyl-6-oxo-1,6-dihydropyrimidin-2-yl)-4-(trifluoromethyl)benzyl]-4-{[3-(trifluoromethyl)benzyl]oxy}cyclohexane-1-carboxamide]
< 1	O=C(NCc1ccc(C(F)(F)F)c(-c2nc(C(F)(F)F)cc(=O)[nH]2)c1F)C1CCN(c2ccc(F)cc2)CC1 [Example 58, N-{2-fluoro-3-[6-oxo-4-(trifluoromethyl)-1,6-dihydropyrimidin-2-yl]-4-(trifluoromethyl)benzyl}-1-(4-fluorophenyl)piperidine-4-carboxamide]
15	O=C(NCc1ccc(C(F)(F)F)c(-c2nc(C(F)F)cc(=O)[nH]2)c1F)C1CCN(c2ncc(Cl)cc2Cl)CC1 [Example 45, 1-(3,5-dichloropyridin-2-yl)-N-{3-[4-(difluoromethyl)-6-oxo-1,6-dihydropyrimidin-2-yl]-2-fluoro-4-(trifluoromethyl)benzyl}piperidine-4-carboxamide]
56	CCc1nc(-c2c(C(F)(F)F)ccc(CNC(=O)C3CCN(c4ccc(Cl)cc4)CC3)c2F)[nH]c(=O)c1F [Example 79, 1-(4-chlorophenyl)-N-[3-(4-ethyl-5-fluoro-6-oxo-1,6-dihydropyrimidin-2-yl)-2-fluoro-4-(trifluoromethyl)benzyl]piperidine-4-carboxamide]
< 1	O=c1cc(C(F)(F)F)nc(-c2c(C(F)(F)F)ccc(CNC(=O)[C@H]3CC[C@H](OCc4cc(F)cc(Cl)c4)CC3)c2F)[nH]1 [Example 119, trans-4-[(3-chloro-5-fluorobenzyl)oxy]-N-{2-fluoro-3-[6-oxo-4-(trifluoromethyl)-1,6-dihydropyrimidin-2-yl]-4-(trifluoromethyl)benzyl}cyclohexane-1-carboxamide]

Same assay, conditions: microsomes of COS-1 cells transfected with human mPGES-1 cDNA; PGH2 1 μM; 4° C., 4 minutes; PGE2 by EIA; read-out: h mPGES1 IC50

IC50 [nM]	SMILES
16	Cc1nc(-c2c(C(F)(F)F)ccc(CNC(=O)[C@H]3C[C@H](OCc4cccc(C(F)(F)F)c4)C3)c2F)[nH]c(=O)c1F [Example 216, trans-N-[2-fluoro-3-(5-fluoro-4-methyl-6-oxo-1,6-dihydropyrimidin-2-yl)-4-(trifluoromethyl)benzyl]-3-{[3-(trifluoromethyl)benzyl]oxy}cyclobutane-1-carboxamide]
< 1	Cc1cc(=O)[nH]c(-c2c(C(F)(F)F)ccc(CNC(=O)[C@H]3C[C@H](OCc4ccc(F)c(Cl)c4)C3)c2F)n1 [Example 193, trans-3-[(3-chloro-4-fluorobenzyl)oxy]-N-[2-fluoro-3-(4-methyl-6-oxo-1,6-dihydropyrimidin-2-yl)-4-(trifluoromethyl)benzyl]cyclobutane-1-carboxamide]
< 1	O=c1cc(C(F)(F)F)nc(-c2c(C(F)(F)F)ccc(CNC(=O)[C@H]3C[C@@H](Oc4ccc(C(F)(F)F)cn4)C3)c2F)[nH]1 [Example 250, cis-N-{2-fluoro-3-[6-oxo-4-(trifluoromethyl)-1,6-dihydropyrimidin-2-yl]-4-(trifluoromethyl)benzyl}-3-{[5-(trifluoromethyl)pyridin-2-yl]oxy}cyclobutane-1-carboxamide]
< 1	O=c1cc(C(F)(F)F)nc(-c2c(C(F)(F)F)ccc(CNC(=O)[C@H]3C[C@H](OCc4cc(Cl)ccc4F)C3)c2F)[nH]1 [Example 156, trans-3-[(5-chloro-2-fluorobenzyl)oxy]-N-{2-fluoro-3-[6-oxo-4-(trifluoromethyl)-1,6-dihydropyrimidin-2-yl]-4-(trifluoromethyl)benzyl}cyclobutane-1-carboxamide]
1	O=c1cc(C(F)(F)F)nc(-c2c(C(F)(F)F)ccc(CNC(=O)[C@H]3C[C@H](Oc4cccc(Cl)c4)C3)c2F)[nH]1 [Example 253, trans-3-(3-chlorophenoxy)-N-{2-fluoro-3-[6-oxo-4-(trifluoromethyl)-1,6-dihydropyrimidin-2-yl]-4-(trifluoromethyl)benzyl}cyclobutane-1-carboxamide]
< 1	O=c1cc(C(F)(F)F)nc(-c2c(C(F)(F)F)ccc(CNC(=O)[C@H]3C[C@H](Oc4ccccc4Cl)C3)c2F)[nH]1 [Example 251, trans-3-(2-chlorophenoxy)-N-{2-fluoro-3-[6-oxo-4-(trifluoromethyl)-1,6-dihydropyrimidin-2-yl]-4-(trifluoromethyl)benzyl}cyclobutane-1-carboxamide]
< 1	O=c1cc(C(F)F)nc(-c2c(C(F)(F)F)ccc(CNC(=O)[C@H]3C[C@H](OCc4cccc(C(F)(F)F)c4)C3)c2F)[nH]1 [Example 165, trans-N-{3-[4-(difluoromethyl)-6-oxo-1,6-dihydropyrimidin-2-yl]-2-fluoro-4-(trifluoromethyl)benzyl}-3-{[3-(trifluoromethyl)benzyl]oxy}cyclobutane-1-carboxamide]

Source: patent publication US20250340557A1, “PYRIMIDINE DERIVATIVE” (ASKA PHARMACEUTICAL CO., LTD., priority 2022, published 2025)
